In brackets after ≈: the same amount, converted by molar mass. Activity calls are given as the source filed them. The rule behind the calls is not given here. Bridge positions count the residues as written; N and C are the ends. Square brackets hold non-standard residues; d marks the D form. Peptide text beside a SMILES is read from it. * marks the point of attachment. X1 = CC[C@H](C)CCCCC(=O)*; βNA = c1ccc2cc(N*)ccc2c1; Dab = NCC[C@H](N)C(=O)O

In test [1] the test system is Escherichia coli. Description: Antibacterial activity against Escherichia coli ATCC 25922 incubated for 24 hrs by serial dilution method. In kind it is functional. As to conditions: ATCC 25922, 24 h.
Test [2] relates to Escherichia coli. The experiment in a line: Potentiation of clarithromycin-induced antibacterial activity against Escherichia coli ATCC 25922 assessed as clarithromycin MIC at 12.5 ug/ml incubated for 24 hrs by microtiter plate reader analysis (reference value: 64 microg/ml). The format is functional. To be noted: ATCC 25922, 24 h.
For test [3], the system named is Escherichia coli. The experiment in a line: Potentiation of clarithromycin-induced antibacterial activity against Escherichia coli ATCC 25922 assessed as fold reduction in clarithromycin MIC at 12.5 ug/ml incubated for 24 hrs in presence of clarithromycin. In kind it is functional.
The test system of a further test is Pseudomonas aeruginosa. The experiment in a line: Potentiation of levofloxacin-induced antibacterial activity against Pseudomonas aeruginosa assessed as concentration required to decrease levofloxacin MIC by 8 fold in presence of levofloxacin. To be noted: read-out: MEC. In kind it is functional.
For test [4], the system named is Escherichia coli. The experiment in a line: Potentiation of calrithromycin-induced antibacterial activity against Escherichia coli ATCC 25922 assessed as clarithromycin MIC at 50 ug/ml incubated for 24 hrs by microtiter plate reader analysis (reference value: 64 microg/ml). As to conditions: ATCC 25922, 24 h. In kind it is functional.
Test [5] concerns Escherichia coli. Description: Potentiation of clarithromycin-induced antibacterial activity against Escherichia coli ATCC 25922 assessed as fold reduction in clarithromycin MIC at 50 ug/ml incubated for 24 hrs in presence of clarithromycin. In kind it is functional.
The subject of test [6] is Escherichia coli ATCC 25922. Description: Induction of outer membrane permeabilization/inhibition of AcrAB-TolC efflux pump in Escherichia coli ATCC 25922 assessed as increase in NPN uptake incubated for 10 mins in dark by fluorescence assay.
Test [7] concerns Escherichia coli. The experiment in a line: Induction of inner membrane permeabilization in Escherichia coli ATCC 25922 assessed as increase in propidium iodide uptake at 1/32 to 1/2 times MIC by PI staining based flow cytometric analysis. The format is organism-based.
For test [8], the system named is Escherichia coli ATCC 25922. Description: Inhibition of efflux pump in CCCP-pretreated Escherichia coli ATCC 25922 assessed as […] by measuring decrease in fluorescence intensity pre-incubated for 5 mins followed by glucose addition by Hoechst 33342 staining based fluorescence assay.
In test [9] the test system is Escherichia coli ATCC 25922. The experiment in a line: Induction of outer membrane permeabilization/inhibition of AcrAB-TolC efflux pump in Escherichia coli ATCC 25922 assessed as increase in NPN uptake at 1/32 to 1/2 times MIC incubated for 10 mins in dark by fluorescence assay.

`NCCC[C@H](N)C(=O)NC(c1ccccc1)c1ccccc1`: the MIC (as a rule, the lowest concentration that inhibits growth of the organism) is greater than 100 µg/mL against Escherichia coli [1] and 64 µg/mL with Escherichia coli [2]. Further, the “fold change (FC)” value in the test with Escherichia coli [3] is listed as 1.

For the compound `CN(C)CCC[C@H](N)C(=O)NC(CCc1ccccc1)CCc1ccccc1`, the MIC in the test with Escherichia coli [1] was greater than 100 µg/mL; in the test with Escherichia coli [2] it was 64 µg/mL. In addition, in the test on Escherichia coli [3], the “fold change (FC)” value is 1.

As for `NC[C@@H](N)CC(=O)NC(CCc1ccccc1)CCc1ccccc1`, the MIC in the test on Escherichia coli [1] is 200 µg/mL (≈ 589 µM); in the test on Escherichia coli [2] it was 64 µg/mL. For the same compound, the “fold change (FC)” value in the test on Escherichia coli [3] amounted to 1.

As for `NCCC[C@@H](N)C(=O)N[C@H](CCc1ccccc1)C(=O)Nc1cnc2ccccc2c1`, the minimal effective concentration with Pseudomonas aeruginosa is 10 µg/mL.

For `NCCC[C@H](NC(=O)[C@@H](N)Cc1ccccc1)C(=O)Nc1ccc2ccccc2c1`, the minimal effective concentration in the test with Pseudomonas aeruginosa is 5 µg/mL.

Turning to `N=C(N)NCCC[C@H](NC(=O)[C@@H](N)Cc1ccccc1)C(=O)Nc1ccc2ccccc2c1` [PABETAN] (H-Phe-Arg-βNA), the values for the MIC with Escherichia coli [1] and in the test on Escherichia coli [4] were greater than 100 µg/mL and 16 µg/mL, respectively. Further, the “fold change (FC)” value in the test on Escherichia coli [5] came to 4. For the same compound, in the test on Pseudomonas aeruginosa, the minimal effective concentration is 10 µg/mL.

Take `NCC[C@H](N)C(=O)NC(CCc1ccccc1)CCc1ccccc1`: the results for the MIC against Escherichia coli [1] and in the test with Escherichia coli [2] were 100 µg/mL (≈ 295 µM) and 32 µg/mL, respectively. The “fold change (FC)” value in the test on Escherichia coli [3] was 2.

`NCC[C@H](N)CCNC(CCc1ccccc1)CCc1ccccc1`: the results for the minimal inhibitory concentration (MIC) against Escherichia coli [1] and in the test on Escherichia coli [2] were 100 µg/mL (≈ 295 µM) and 2 µg/mL, respectively. Moreover, the “fold change (FC)” value in the test with Escherichia coli [3] is given as 32. The Activity entry in test [6] is “Dose-dependent effect”. Also, the outcome in the test on Escherichia coli [7] was inactive. The inhibition entry in test [8] is “Dose-dependent effect”.

With `N=C(N)NCCC[C@H](N)C(=O)NC(CCc1ccccc1)CCc1ccccc1`, the figures for the MIC with Escherichia coli [1] and in the test with Escherichia coli [2] were greater than 100 µg/mL and 32 µg/mL, respectively. Moreover, the “fold change (FC)” value in the test with Escherichia coli [3] stood at 2.

Take `NCC[C@H](N)CC(=O)NC(CCc1ccccc1)CCc1ccccc1`: the minimal inhibitory concentration (MIC) against Escherichia coli [1] was 100 µg/mL (≈ 283 µM); in the test with Escherichia coli [2], 4 µg/mL. In addition, the “fold change (FC)” value with Escherichia coli [3] worked out at 16.

Take `COc1ccc(CN2CCN(C(CCc3ccccc3)CCc3ccccc3)CC2)cc1`: the minimum inhibitory concentration (MIC) against Escherichia coli [1] is greater than 100 µg/mL; in the test on Escherichia coli [2], 64 µg/mL. Moreover, the “fold change (FC)” value in the test on Escherichia coli [3] came out at 1.

For the compound `CC[C@H](C)CCCCC(=O)N[C@@H](CCN)C(=O)N[C@H](C(=O)N[C@@H](CCN)C(=O)N[C@H]1CCNC(=O)[C@H]([C@@H](C)O)NC(=O)[C@H](CCN)NC(=O)[C@H](CCN)NC(=O)[C@H](CC(C)C)NC(=O)[C@@H](Cc2ccccc2)NC(=O)[C@H](CCN)NC1=O)[C@@H](C)O` (X1-[Dab]T[Dab][Dab][Dab][dF]L[Dab][Dab]T; lactam 4-C), in the test on Escherichia coli [1], the lowest concentration to inhibit growth (MIC) was 1.56 µg/mL (≈ 1.3 µM). Also, the result (in test [9]; in the test on Escherichia coli [7]) was Active.

Consider `NC[C@@H](N)CCNC(CCc1ccccc1)CCc1ccccc1`, for which the MIC against Escherichia coli [1] was found to be 100 µg/mL (≈ 307 µM); with Escherichia coli [2] it was 32 µg/mL. Besides, in the test with Escherichia coli [3], the “fold change (FC)” value is reported as 2.

For the compound `NCCC[C@H](N)C(=O)NC(CCc1ccccc1)CCc1ccccc1`, the MIC was greater than 100 µg/mL against Escherichia coli [1] and 16 µg/mL with Escherichia coli [2]. Also, the “fold change (FC)” value with Escherichia coli [3] was 4.

Take `NCCC[C@H](N)CNC(CCc1ccccc1)CCc1ccccc1`: the MIC against Escherichia coli [1] worked out at 25 µg/mL (≈ 73.6 µM); in the test on Escherichia coli [2], 8 µg/mL. In the test with Escherichia coli [3], the “fold change (FC)” value worked out at 8.

Turning to `NCCC[C@@H](N)C(=O)NC(CCc1ccccc1)CCc1ccccc1`, the figures for the minimal inhibitory concentration (MIC) against Escherichia coli [1] and in the test with Escherichia coli [2] were greater than 100 µg/mL and 32 µg/mL, respectively. For the same compound, the “fold change (FC)” value in the test with Escherichia coli [3] is on record as 2.

Take `NCCC[C@@H](N)C(=O)N[C@H](CCc1ccccc1)C(=O)Nc1ncc(C(=O)Nc2cnc3ccccc3c2)o1`: the minimal effective concentration in the test on Pseudomonas aeruginosa amounted to 5 µg/mL.

For the compound `CN1CCN(C(CCc2ccccc2)CCc2ccccc2)CC1`, the MIC is greater than 100 µg/mL in the test with Escherichia coli [1] and 64 µg/mL with Escherichia coli [2]. The “fold change (FC)” value in the test with Escherichia coli [3] is listed as 1.

Turning to `NC[C@@H](N)CCCNC(CCc1ccccc1)CCc1ccccc1`, the figures for the minimum inhibitory concentration (MIC) in the test with Escherichia coli [1] and in the test with Escherichia coli [2] were 25 µg/mL (≈ 73.6 µM) and 4 µg/mL, respectively. Moreover, the “fold change (FC)” value with Escherichia coli [3] is reported as 16.

`CN(C(=O)[C@@H](N)CCCN)C(CCc1ccccc1)CCc1ccccc1`: the minimum inhibitory concentration (MIC) against Escherichia coli [1] was greater than 100 µg/mL; in the test on Escherichia coli [2] it was 32 µg/mL. Also, the “fold change (FC)” value in the test with Escherichia coli [3] worked out at 2.

As to `NCCC[C@@H](N)C(=O)N[C@H](CCc1ccccc1)COc1ccc(Cl)cc1`, the minimal effective concentration in the test with Pseudomonas aeruginosa turned out to be 5 µg/mL.

In the case of `NCC[C@H](N)CNC(CCc1ccccc1)CCc1ccccc1`, the MIC in the test with Escherichia coli [1] was found to be 100 µg/mL (≈ 307 µM); in the test on Escherichia coli [2], 16 µg/mL. Besides, the “fold change (FC)” value in the test on Escherichia coli [3] came out at 4.

As for `CNCCC[C@H](N)C(=O)NC(CCc1ccccc1)CCc1ccccc1`, the MIC in the test with Escherichia coli [1] was 100 µg/mL (≈ 272 µM); in the test with Escherichia coli [2] it was 64 µg/mL. In the test on Escherichia coli [3], the “fold change (FC)” value is 1.

With `NCCC[C@H](N)C(=O)NC(Cc1ccccc1)Cc1ccccc1`, the minimal inhibitory concentration (MIC) was greater than 100 µg/mL against Escherichia coli [1] and 32 µg/mL in the test with Escherichia coli [2]. Besides, the “fold change (FC)” value in the test with Escherichia coli [3] is on record as 2.

Compound `CC[C@H]1OC(=O)[C@H](C)[C@@H](O[C@H]2C[C@@](C)(OC)[C@@H](O)[C@H](C)O2)[C@H](C)[C@@H](O[C@@H]2O[C@H](C)C[C@H](N(C)C)[C@H]2O)[C@](C)(OC)C[C@@H](C)C(=O)[C@H](C)[C@@H](O)[C@]1(C)O` [CLARITHROMYCIN] had a minimum inhibitory concentration (MIC) with Escherichia coli [1] of 64 µg/mL (≈ 85.6 µM).

Take `CN(C(=O)[C@@H](N)CCCN)C(Cc1ccccc1)Cc1ccccc1`: the minimum inhibitory concentration (MIC) was greater than 100 µg/mL against Escherichia coli [1] and 32 µg/mL in the test on Escherichia coli [2]. For the same compound, in the test with Escherichia coli [3], the “fold change (FC)” value came to 2.

Regarding `NC[C@@H](N)CCC(=O)NC(CCc1ccccc1)CCc1ccccc1`, the MIC worked out at 100 µg/mL (≈ 283 µM) against Escherichia coli [1] and 32 µg/mL in the test with Escherichia coli [2]. In the test on Escherichia coli [3], the “fold change (FC)” value is reported as 2.

Take `NCCC[C@@H](N)C(=O)N[C@H](CCc1ccccc1)CSc1ccc(Cl)cc1`: the minimal effective concentration with Pseudomonas aeruginosa came out at 1.25 µg/mL.

For `CN(C(=O)[C@@H](N)CCCN)C(c1ccccc1)c1ccccc1`, the MIC against Escherichia coli [1] was greater than 100 µg/mL; in the test with Escherichia coli [2], 32 µg/mL. The “fold change (FC)” value with Escherichia coli [3] is 2.

The values are drawn from ChEMBL document CHEMBL4364243, “Structure-activity relationships of potentiators of the antibiotic activity of clarithromycin against Escherichia coli” (2019).
